According to US20220267380A1, “Glycopeptides Increasing Lipid Synthesis” (TFCHEM, priority 2019, published 2022):

Tested on: normal human dermal fibroblasts (NHDF)
Test: Gene expression in NHDF, full transcriptome analysis with Affymetrix U219 microarray
Format: cell-based
Conditions: NHDF
Description: In the present study, the transcriptional effects (modulation of gene expression) of compounds 1, 2, 3 and 4 were evaluated on normal human dermal fibroblasts (NHDF) under basal conditions.
More specifically, the comparative analysis of the different transcriptomic profiles was performed using an Affymetrix GeneAtlas platform and the human “full transcriptome” U219 chip, which includes 36,000 transcripts and variants.
Fibroblasts were seeded in 24-well plates and cultured in culture medium for 24 hours. The medium was then replaced by assay medium and cells were incubated for further 24 hours. The medium was replaced by assay medium containing or not (control) the test compounds at different concentrations and the cells were preincubated for 24 hours. All experimental conditions were performed in triplicate. At the end of incubation, the culture supernatants were removed and the cells were washed in a phosphate buffered saline (PBS) solution and immediately frozen at −80° C.
Before RNA extraction, the replicates were pooled. Total RNA was extracted from each sample using TriPure Isolation Reagent® according to the supplier's instructions. The amount and quality of total RNA were evaluated for all samples using capillary electrophoresis (Bioanalyzer 2100, Agilent technologies). From each RNA, a labeled and amplified anti-sens RNA (aRNA) was obtained using GeneChip 3′IVT PLUS Kit (Affymetrix). For each labeled and amplified aRNA sample the profiles were evaluated before and after fragmentation using capillary electrophoresis (Bioanalyzer 2100, Agilent technologies). Hybridization of fragmented aRNA onto Affymetrix® U219 chip (36,000 transcripts and variants) was performed in the GeneAtlas™ fluidics Affymetrix® hybridization station for 20 hours at 45° C. U219 chip was analyzed using the GeneAtlas™ Imaging station (Affymetrix®—resolution 2 μm) to generate fluorescence intensity data.
Expression Console and Quality controls: data were normalized with the Expression Console (Affymetrix®) software using RMA algorithm. Then a quality control of the labeling and the hybridization was performed. Hybridization and labeling steps successfully passed the quality controls for these experiments.
Data reduction, Excel file description: once normalized with Expression Console, data were transferred into a Microsoft Excel® file in order to go further into data reduction.
Calculation and tools were added in order to rank and sort data, and finally to support data interpretation. Detection thresholds in terms of fold change were defined and applied on normalized data.
Results are considered and presented or commented per gene (and not probe). A probe set is a collection of probes designed to interrogate a given sequence of a gene. For data interpretation, the most important relative expression value obtained with one probe is considered to be representative of the corresponding gene. The file contains the following data: • Relative expression (RE) for each sample, • Fold change calculation, • Gene information.

SMILES: N[C@@H](CCCCNCC(F)(F)[C@]1(O)O[C@H](CO)[C@H](O)[C@H](O)[C@H]1O)C(=O)O [Compound 3]
- effect of treatment of NHDF on lipid synthesis (transcriptional): up regulation of lipids synthesis, including fatty acids, cholesterol or ceramides
- Fold change, ACOT1///ACOT2 (10 mg/ml, 24 h, vs control): 2.02
- Fold change, APOD (10 mg/ml, 24 h, vs control): 0.44
- Fold change, DHCR7 (10 mg/ml, 24 h, vs control): 2.95
- Fold change, FADS2 (10 mg/ml, 24 h, vs control): 2.20
- Fold change, GBAP1 (10 mg/ml, 24 h, vs control): 2.45
- Fold change, HACD1 (10 mg/ml, 24 h, vs control): 2.63
- Fold change, HMGCS1 (10 mg/ml, 24 h, vs control): 2.18
- Fold change, LRP8 (10 mg/ml, 24 h, vs control): 2.98
- Fold change, MVD (10 mg/ml, 24 h, vs control): 2.80
- Fold change, NCOR1 (10 mg/ml, 24 h, vs control): 0.44
- Fold change, NEU1 (10 mg/ml, 24 h, vs control): 3.17
- Fold change, NPC1 (10 mg/ml, 24 h, vs control): 2.45
- Fold change, PHLDB2 (10 mg/ml, 24 h, vs control): 2.14
- Fold change, PHYH (10 mg/ml, 24 h, vs control): 2.37
- Fold change, PLA2G15 (10 mg/ml, 24 h, vs control): 2.01
- Fold change, PLA2G16 (10 mg/ml, 24 h, vs control): 2.30
- Fold change, PRKAB2 (10 mg/ml, 24 h, vs control): 0.35
- Fold change, PTGDS (10 mg/ml, 24 h, vs control): 2.50
- Fold change, SOAT1 (10 mg/ml, 24 h, vs control): 2.08
- Fold change, SPHK1 (10 mg/ml, 24 h, vs control): 2.18
- Fold change, SREBF1 (10 mg/ml, 24 h, vs control): 2.16
- Fold change, TXNRD1 (10 mg/ml, 24 h, vs control): 2.22
- Fold change, VAC14 (10 mg/ml, 24 h, vs control): 2.10
- Fold change, SCD (10 mg/ml, 24 h, vs control, Affymetrix probe set 11715561_s_at): 4.60
- Fold change, SCD (10 mg/ml, 24 h, vs control, Affymetrix probe set 11715562_x_at): 4.82
- Fold change, SCD (10 mg/ml, 24 h, vs control, Affymetrix probe set 11715563_s_at): 4.79
- Fold change, G6PD (10 mg/ml, 24 h, vs control, Affymetrix probe set 11716292_a_at): 2.00
- Fold change, G6PD (10 mg/ml, 24 h, vs control, Affymetrix probe set 11716293_x_at): 2.04
- Fold change, INSIG1 (10 mg/ml, 24 h, vs control, Affymetrix probe set 11716338_a_at): 2.36
- Fold change, INSIG1 (10 mg/ml, 24 h, vs control, Affymetrix probe set 11716339_a_at): 2.78
- Fold change, PPT1 (10 mg/ml, 24 h, vs control, Affymetrix probe set 11716533_a_at): 2.40
- Fold change, LSS (10 mg/ml, 24 h, vs control, Affymetrix probe set 11717620_a_at): 2.41
- Fold change, EBP (10 mg/ml, 24 h, vs control, Affymetrix probe set 11717859_a_at): 2.52
- Fold change, GBA///GBAP1 (10 mg/ml, 24 h, vs control, Affymetrix probe set 11719908_a_at): 2.30
- Fold change, GM2A (10 mg/ml, 24 h, vs control, Affymetrix probe set 11719921_s_at): 2.39
- Fold change, GM2A (10 mg/ml, 24 h, vs control, Affymetrix probe set 11719923_at): 2.09
- Fold change, HSD17B14 (10 mg/ml, 24 h, vs control, Affymetrix probe set 11720588_a_at): 2.17
- Fold change, SERINC2 (10 mg/ml, 24 h, vs control, Affymetrix probe set 11721046_a_at): 2.54
- Fold change, TPP1 (10 mg/ml, 24 h, vs control, Affymetrix probe set 11725032_a_at): 2.23
- Fold change, ME1 (10 mg/ml, 24 h, vs control, Affymetrix probe set 11726265_at): 2.41
- Fold change, LSS (10 mg/ml, 24 h, vs control, Affymetrix probe set 11731324_a_at): 3.12
- Fold change, GBA///GBAP1 (10 mg/ml, 24 h, vs control, Affymetrix probe set 11736100_a_at): 2.69
- Fold change, CHKA (10 mg/ml, 24 h, vs control, Affymetrix probe set 11736285_a_at): 2.53
- Fold change, CHKA (10 mg/ml, 24 h, vs control, Affymetrix probe set 11736286_a_at): 2.73
- Fold change, ASAH1 (10 mg/ml, 24 h, vs control, Affymetrix probe set 11740582_a_at): 2.18
- Fold change, PPT1 (10 mg/ml, 24 h, vs control, Affymetrix probe set 11742107_a_at): 2.25
- Fold change, ASAH1 (10 mg/ml, 24 h, vs control, Affymetrix probe set 11743547_a_at): 2.16
- Fold change, PCYT2 (10 mg/ml, 24 h, vs control, Affymetrix probe set 11744044_s_at): 2.15
- Fold change, FADS1 (10 mg/ml, 24 h, vs control, Affymetrix probe set 11745459_a_at): 3.04
- Fold change, LPCAT3 (10 mg/ml, 24 h, vs control, Affymetrix probe set 11746281_a_at): 2.48
- Fold change, LDLR (10 mg/ml, 24 h, vs control, Affymetrix probe set 11746974_a_at): 2.37
- Fold change, GM2A (10 mg/ml, 24 h, vs control, Affymetrix probe set 11747178_x_at): 2.24
- Fold change, PCYT2 (10 mg/ml, 24 h, vs control, Affymetrix probe set 11747322_s_at): 2.72
- Fold change, LDLR (10 mg/ml, 24 h, vs control, Affymetrix probe set 11748045_x_at): 2.10
- Fold change, SERINC2 (10 mg/ml, 24 h, vs control, Affymetrix probe set 11748053_x_at): 2.92
- Fold change, TM7SF2 (10 mg/ml, 24 h, vs control, Affymetrix probe set 11748279_s_at): 2.25
- Fold change, GBA///GBAP1 (10 mg/ml, 24 h, vs control, Affymetrix probe set 11748292_a_at): 2.58
- Fold change, TPP1 (10 mg/ml, 24 h, vs control, Affymetrix probe set 11748341_a_at): 2.60
- Fold change, TPP1 (10 mg/ml, 24 h, vs control, Affymetrix probe set 11748342_x_at): 2.34
- Fold change, EBP (10 mg/ml, 24 h, vs control, Affymetrix probe set 11749332_x_at): 2.48
- Fold change, ABHD4 (10 mg/ml, 24 h, vs control, Affymetrix probe set 11749343_a_at): 2.28
- Fold change, ABHD4 (10 mg/ml, 24 h, vs control, Affymetrix probe set 11749376_a_at): 2.13
- Fold change, ME1 (10 mg/ml, 24 h, vs control, Affymetrix probe set 11750913_a_at): 2.67
- Fold change, GBA (10 mg/ml, 24 h, vs control, Affymetrix probe set 11750975_x_at): 2.34
- Fold change, GBA///GBAP1 (10 mg/ml, 24 h, vs control, Affymetrix probe set 11751085_a_at): 2.84
- Fold change, GBA (10 mg/ml, 24 h, vs control, Affymetrix probe set 11751086_x_at): 2.57
- Fold change, GBA///GBAP1 (10 mg/ml, 24 h, vs control, Affymetrix probe set 11751098_a_at): 2.57
- Fold change, DHCR24 (10 mg/ml, 24 h, vs control, Affymetrix probe set 11751337_a_at): 2.29
- Fold change, DHCR24 (10 mg/ml, 24 h, vs control, Affymetrix probe set 11751338_x_at): 2.44
- Fold change, G6PD (10 mg/ml, 24 h, vs control, Affymetrix probe set 11752486_a_at): 3.18
